The values below come from ChEMBL document CHEMBL5365465, “Oxetanes in Drug Discovery Campaigns” (J Med Chem, 2023).

One data set deals with Protease (Human immunodeficiency virus 1, UniProt Q9YQ12). In words: Inhibition of HIV protease.
Data set [1] addresses T1, Leucine-rich repeat serine/threonine-protein kinase 2 (Homo sapiens, UniProt Q5S007). As to the kind of experiment: Inhibition of LRRK2 (unknown origin).
The target in data set [2] is T1, Leucine-rich repeat serine/threonine-protein kinase 2. As to the kind of experiment: Inhibition of LRRK2 in human PBMCs assessed as reduction in […] phosphorylation.
Data set [3] deals with Histone-lysine N-methyltransferase EZH2 (Homo sapiens, UniProt Q15910). In words: Inhibition of EZH2 (unknown origin).
Histone-lysine N-methyltransferase EZH2, sequence (Q15910 whole entry): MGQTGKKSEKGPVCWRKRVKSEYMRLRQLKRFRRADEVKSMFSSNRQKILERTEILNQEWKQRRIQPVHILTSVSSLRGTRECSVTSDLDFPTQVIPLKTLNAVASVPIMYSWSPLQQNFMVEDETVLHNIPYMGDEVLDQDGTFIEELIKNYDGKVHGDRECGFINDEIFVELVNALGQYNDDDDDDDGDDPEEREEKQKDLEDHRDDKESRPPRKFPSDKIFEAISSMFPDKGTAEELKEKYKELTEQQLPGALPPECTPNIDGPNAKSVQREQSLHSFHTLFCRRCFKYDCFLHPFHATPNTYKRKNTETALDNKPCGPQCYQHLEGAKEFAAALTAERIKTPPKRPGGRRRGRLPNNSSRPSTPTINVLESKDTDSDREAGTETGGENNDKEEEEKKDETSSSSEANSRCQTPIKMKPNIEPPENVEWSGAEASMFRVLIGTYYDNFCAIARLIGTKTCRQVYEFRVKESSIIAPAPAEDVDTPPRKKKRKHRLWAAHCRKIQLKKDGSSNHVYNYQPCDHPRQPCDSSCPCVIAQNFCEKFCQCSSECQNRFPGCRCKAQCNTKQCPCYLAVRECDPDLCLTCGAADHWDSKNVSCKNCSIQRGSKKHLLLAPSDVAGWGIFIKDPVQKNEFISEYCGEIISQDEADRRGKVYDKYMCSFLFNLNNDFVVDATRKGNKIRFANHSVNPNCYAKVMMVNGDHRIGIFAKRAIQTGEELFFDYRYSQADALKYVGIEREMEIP
Data set [4] can be described thus: Metabolic stability in human liver microsomes assessed as intrinsic clearance. The class given is ADME, Microsome.
Data set [5] concerns the target Platelet-derived growth factor receptor alpha (Homo sapiens, UniProt P16234, D842V). As to the kind of experiment: Inhibition of PDGFRalpha D842V mutant (unknown origin).
For data set [6], the target named is Mast/stem cell growth factor receptor Kit (Homo sapiens, UniProt P10721, D816V). As to the kind of experiment: Inhibition of KIT D816V mutant (unknown origin).
Mast/stem cell growth factor receptor Kit, sequence (P10721 26-976 D816V limits assumed): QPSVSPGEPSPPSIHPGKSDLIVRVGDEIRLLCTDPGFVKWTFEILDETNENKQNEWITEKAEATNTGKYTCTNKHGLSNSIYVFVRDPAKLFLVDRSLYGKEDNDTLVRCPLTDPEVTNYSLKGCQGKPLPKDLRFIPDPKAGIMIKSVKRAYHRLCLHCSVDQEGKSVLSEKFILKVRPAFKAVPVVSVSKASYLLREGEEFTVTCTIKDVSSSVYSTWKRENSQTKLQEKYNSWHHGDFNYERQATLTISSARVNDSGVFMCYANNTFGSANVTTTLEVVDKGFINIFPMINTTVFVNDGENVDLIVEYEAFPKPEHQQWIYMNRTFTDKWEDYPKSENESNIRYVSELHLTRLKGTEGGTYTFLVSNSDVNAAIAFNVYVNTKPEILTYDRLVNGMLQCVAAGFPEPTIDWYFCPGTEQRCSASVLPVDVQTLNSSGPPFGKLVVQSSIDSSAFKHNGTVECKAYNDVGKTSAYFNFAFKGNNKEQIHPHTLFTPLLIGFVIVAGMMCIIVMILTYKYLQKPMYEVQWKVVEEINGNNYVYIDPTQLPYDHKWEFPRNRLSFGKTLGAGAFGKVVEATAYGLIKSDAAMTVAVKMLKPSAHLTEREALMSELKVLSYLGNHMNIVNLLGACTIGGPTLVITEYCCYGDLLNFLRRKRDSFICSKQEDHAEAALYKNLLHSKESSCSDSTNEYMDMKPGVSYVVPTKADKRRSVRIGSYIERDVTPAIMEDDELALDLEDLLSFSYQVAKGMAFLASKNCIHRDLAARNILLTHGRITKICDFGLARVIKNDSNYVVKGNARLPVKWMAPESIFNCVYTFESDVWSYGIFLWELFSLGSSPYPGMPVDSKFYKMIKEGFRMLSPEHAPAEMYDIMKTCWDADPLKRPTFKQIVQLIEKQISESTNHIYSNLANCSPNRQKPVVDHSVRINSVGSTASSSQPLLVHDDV
Data set [7] is described as follows: Aqueous solubility of compound at pH 2. The class given is physicochemical.

Molecules are shown by their SMILES. Some results are limits rather than exact numbers.

T1 sequence (Q5S007 whole entry): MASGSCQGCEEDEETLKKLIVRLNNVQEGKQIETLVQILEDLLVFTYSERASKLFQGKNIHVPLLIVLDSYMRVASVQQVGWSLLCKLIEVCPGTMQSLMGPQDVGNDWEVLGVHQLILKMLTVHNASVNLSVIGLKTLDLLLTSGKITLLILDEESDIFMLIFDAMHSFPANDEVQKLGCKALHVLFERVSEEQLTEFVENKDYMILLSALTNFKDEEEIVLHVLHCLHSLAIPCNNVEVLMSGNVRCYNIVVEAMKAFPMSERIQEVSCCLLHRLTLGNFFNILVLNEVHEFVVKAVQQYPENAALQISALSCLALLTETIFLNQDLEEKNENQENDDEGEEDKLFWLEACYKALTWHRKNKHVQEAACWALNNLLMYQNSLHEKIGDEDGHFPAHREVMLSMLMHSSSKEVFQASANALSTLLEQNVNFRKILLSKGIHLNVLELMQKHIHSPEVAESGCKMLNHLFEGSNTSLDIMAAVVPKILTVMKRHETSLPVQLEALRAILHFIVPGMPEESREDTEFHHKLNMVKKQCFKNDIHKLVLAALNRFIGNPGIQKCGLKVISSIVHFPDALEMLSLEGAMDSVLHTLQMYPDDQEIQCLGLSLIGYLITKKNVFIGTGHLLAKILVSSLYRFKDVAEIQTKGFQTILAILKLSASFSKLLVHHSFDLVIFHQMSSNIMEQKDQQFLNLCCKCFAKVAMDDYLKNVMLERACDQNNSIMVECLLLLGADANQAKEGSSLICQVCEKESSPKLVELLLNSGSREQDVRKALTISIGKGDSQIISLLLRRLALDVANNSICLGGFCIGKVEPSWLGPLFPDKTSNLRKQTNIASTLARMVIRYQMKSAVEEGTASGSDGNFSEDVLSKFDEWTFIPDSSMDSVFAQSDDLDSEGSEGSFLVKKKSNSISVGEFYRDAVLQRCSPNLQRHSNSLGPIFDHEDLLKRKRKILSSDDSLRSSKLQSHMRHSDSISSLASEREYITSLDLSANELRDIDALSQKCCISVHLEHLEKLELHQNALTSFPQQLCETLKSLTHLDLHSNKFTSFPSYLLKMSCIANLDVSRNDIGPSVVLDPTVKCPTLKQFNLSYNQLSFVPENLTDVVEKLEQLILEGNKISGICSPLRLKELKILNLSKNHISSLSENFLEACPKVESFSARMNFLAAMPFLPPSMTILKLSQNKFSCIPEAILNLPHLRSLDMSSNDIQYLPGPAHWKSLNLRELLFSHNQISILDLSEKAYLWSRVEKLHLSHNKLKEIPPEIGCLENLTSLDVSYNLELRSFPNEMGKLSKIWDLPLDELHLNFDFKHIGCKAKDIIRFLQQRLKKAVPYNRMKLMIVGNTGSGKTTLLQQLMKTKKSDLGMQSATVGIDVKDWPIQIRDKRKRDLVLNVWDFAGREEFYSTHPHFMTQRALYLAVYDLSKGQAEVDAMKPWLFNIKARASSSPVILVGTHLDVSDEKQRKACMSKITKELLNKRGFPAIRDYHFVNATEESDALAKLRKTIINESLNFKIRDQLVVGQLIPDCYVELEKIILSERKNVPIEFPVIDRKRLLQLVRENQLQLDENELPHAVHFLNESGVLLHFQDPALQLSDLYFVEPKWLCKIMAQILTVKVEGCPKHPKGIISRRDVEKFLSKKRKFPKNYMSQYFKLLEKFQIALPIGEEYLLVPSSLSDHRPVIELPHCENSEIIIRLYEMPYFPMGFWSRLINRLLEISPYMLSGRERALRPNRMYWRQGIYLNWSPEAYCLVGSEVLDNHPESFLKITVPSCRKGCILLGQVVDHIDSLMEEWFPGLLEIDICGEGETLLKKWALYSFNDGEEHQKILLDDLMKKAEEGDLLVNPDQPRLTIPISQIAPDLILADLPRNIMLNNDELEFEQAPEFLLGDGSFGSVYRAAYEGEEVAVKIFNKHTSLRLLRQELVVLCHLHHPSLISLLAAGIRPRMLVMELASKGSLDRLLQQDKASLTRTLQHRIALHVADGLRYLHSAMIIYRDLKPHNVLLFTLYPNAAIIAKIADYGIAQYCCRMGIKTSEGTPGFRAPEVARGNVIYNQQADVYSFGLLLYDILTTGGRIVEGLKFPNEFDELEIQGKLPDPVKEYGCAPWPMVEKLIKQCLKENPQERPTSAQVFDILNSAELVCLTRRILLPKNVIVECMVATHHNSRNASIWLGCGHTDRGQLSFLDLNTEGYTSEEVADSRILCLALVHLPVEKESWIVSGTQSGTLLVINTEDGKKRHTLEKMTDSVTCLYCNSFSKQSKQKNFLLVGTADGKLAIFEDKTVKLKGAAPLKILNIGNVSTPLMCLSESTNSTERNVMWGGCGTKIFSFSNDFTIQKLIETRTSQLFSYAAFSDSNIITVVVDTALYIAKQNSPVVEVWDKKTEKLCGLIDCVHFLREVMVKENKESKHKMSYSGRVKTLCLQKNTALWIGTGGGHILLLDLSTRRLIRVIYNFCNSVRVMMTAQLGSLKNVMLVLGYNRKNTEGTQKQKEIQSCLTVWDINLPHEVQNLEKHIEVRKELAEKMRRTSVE
Protease, sequence (Q9YQ12 whole entry): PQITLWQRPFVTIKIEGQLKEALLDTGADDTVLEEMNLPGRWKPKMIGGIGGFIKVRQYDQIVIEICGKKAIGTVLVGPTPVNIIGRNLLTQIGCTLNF

For `COC(=O)N[C@H](C(=O)N[C@@H](Cc1ccc(C#Cc2ccc(N3CC4CCC(C3)N4C3COC3)nc2)cc1)[C@@H](O)CN(Cc1c(F)cc(-c2ccn(C(F)F)n2)cc1F)NC(=O)[C@@H](NC(=O)OC)C(C)(C)C(F)(F)F)C(C)(C)C(F)(F)F`, the response on Protease was half-maximal at 4.8 nM (EC50).

In the case of `CC(C)(C)Cn1cc(Nc2ncc3c(Cl)c(N4CCN(C5(C)COC5)CC4)ccc3n2)cn1`, in data set [1], it took 9.7 nM to reach half-maximal inhibition (IC50).

Regarding `O=C1NCCCOc2ccc3[nH]nc(c3c2)-c2cc(cc(N3CCC4(COC4)C3)c2)CO1`, the IC50 in data set [2] is under 10 nM.

The molecule `Cc1ccc2ccc(N[C@H]3CC[C@H](CNc4ncc(C(F)(F)C(=O)NC5COC5)cn4)CC3)nc2c1Cl` came in with an IC50 in data set [3] of under 10 nM.

`c1cn2cc(-c3ccc4cn[nH]c4c3)nc(Nc3ccc(N4CCOCC4)cc3)c2n1` [ENTOSPLETINIB]: the CLH in data set [4] was 5.17 mL/min/kg.

In the case of `C[C@](N)(c1ccc(F)cc1)c1cnc(N2CCN(c3ncnn4cc(-c5cnn(CC6COC6)c5)cc34)CC2)nc1`, the IC50 in data set [5] and in data set [6] was under 4.5 nM in each case.

On to `Nc1cncc(-c2cn3ccnc3c(Nc3ccc(N4CCN(C5COC5)CC4)cc3)n2)n1` [LANRAPLENIB], for which the CLH in data set [4] was under 1.83 mL/min/kg. For the same molecule, the solubility in data set [7] is over 100 µM.

The term EC50 denotes the midpoint of the concentration-response curve. Broadly, the IC50 is the point on the concentration scale where inhibition reaches its midpoint. The term solubility denotes the dissolved amount per volume that the medium holds. A high value points to a readily soluble substance.
